Here are results for four compounds from ChEMBL document CHEMBL1687744, “Furanone at subinhibitory concentrations enhances staphylococcal biofilm formation by luxS repression” (Antimicrob Agents Chemother, 2009).

Data set [1] has as its system Staphylococcus epidermidis. The data set is described as follows: Bactericidal activity against Staphylococcus epidermidis 1457 at >50 uM after 18 hrs by CFU count assay. The format is functional, organism-based.
Data set [2] has as its system L929. The data set is described as follows: Cytotoxicity against mouse L929 cells after 24 hrs at 18.6 +/- 12.3 uM by LDH release assay. The format is cell-based. The note with it: l929, 24 h. On the technique in general: LDH leaks from cells whose membrane has failed.
The subject of data set [3] is Staphylococcus epidermidis. The data set is described as follows: Induction of biofilm formation in Staphylococcus epidermidis 1457 at 1 to 100 uM after 18 hrs by crystal violet staining. In kind it is functional, organism-based.
The subject of data set [4] is L929. Put plainly: Cytotoxicity against mouse L929 cells after 24 hrs at 12.1 +/- 5.7 uM by LDH release assay. In kind it is cell-based. The settings on record: l929, 24 h.
Data set [5] relates to Staphylococcus epidermidis. Put plainly: Antimicrobial activity against Staphylococcus epidermidis 1457 by macrodilution method. In kind it is functional.
For data set [6], the system named is Staphylococcus epidermidis. Put plainly: Antimicrobial activity against ica gene-deficient Staphylococcus epidermidis 1457 by macrodilution method. The format is functional.
Data set [7] has as its system Staphylococcus epidermidis. Put plainly: Antimicrobial activity against Staphylococcus epidermidis 047 by macrodilution method. In kind it is functional.
For data set [8], the system named is Staphylococcus epidermidis. Put plainly: Antimicrobial activity against ica gene-deficient Staphylococcus epidermidis 047 by macrodilution method. The format is functional.
For data set [9], the system named is Staphylococcus aureus. Put plainly: Antimicrobial activity against Staphylococcus aureus 113 by macrodilution method. In kind it is functional.
In data set [10] the test system is Staphylococcus aureus. Put plainly: Antimicrobial activity against Staphylococcus aureus Newman by macrodilution method. In kind it is functional.
Data set [11] deals with Bacillus subtilis. The data set is described as follows: Antimicrobial activity against Bacillus subtilis by macrodilution method. In kind it is functional.
Data set [12] relates to Staphylococcus epidermidis. The data set is described as follows: Bactericidal activity against Staphylococcus epidermidis 1457 at >10 uM after 18 hrs by CFU count assay. The format is functional, organism-based.
Data set [13] has as its system Staphylococcus epidermidis. The data set is described as follows: Bactericidal activity against ica gene-deficient Staphylococcus epidermidis 1457 at >10 uM after 18 hrs by CFU count assay. The format is functional, organism-based.
Data set [14] deals with Staphylococcus epidermidis. The data set is described as follows: Bactericidal activity against Staphylococcus epidermidis 047 at >10 uM after 18 hrs by CFU count assay. The format is functional, organism-based.
Data set [15] concerns Staphylococcus epidermidis. Put plainly: Bactericidal activity against ica gene-deficient Staphylococcus epidermidis 047 at >10 uM after 18 hrs by CFU count assay. In kind it is functional, organism-based.
In data set [16] the test system is Staphylococcus aureus. Put plainly: Bactericidal activity against Staphylococcus aureus Newman at >10 uM after 18 hrs by CFU count assay. The format is functional, organism-based.
Data set [17] concerns Staphylococcus aureus. The data set is described as follows: Bactericidal activity against Staphylococcus aureus 113 at >10 uM after 18 hrs by CFU count assay. In kind it is functional, organism-based.
In data set [18] the test system is Staphylococcus epidermidis. The data set is described as follows: Induction of biofilm formation in Staphylococcus epidermidis 1457 at 0.1 times MIC to 0.2 X MIC after 18 hrs by crystal violet staining. In kind it is functional, organism-based.
Data set [19] concerns Staphylococcus epidermidis. Put plainly: Increase in biofilm formation in Staphylococcus epidermidis 047 at 0.1 times MIC to 0.2 X MIC after 18 hrs by crystal violet staining. The format is functional, organism-based.
In data set [20] the test system is Staphylococcus epidermidis. The data set is described as follows: Induction of biofilm formation in ica gene-deficient Staphylococcus epidermidis 1457 after 18 hrs by crystal violet staining. The format is functional, organism-based.
The test system of data set [21] is Staphylococcus epidermidis. The data set is described as follows: Induction of biofilm formation in ica gene-deficient Staphylococcus epidermidis 047 after 18 hrs by crystal violet staining. In kind it is functional, organism-based.
Data set [22] has as its system Staphylococcus aureus. Put plainly: Increase in biofilm formation in Staphylococcus aureus Newman after 18 hrs by crystal violet staining. The format is functional, organism-based.
The subject of data set [23] is Staphylococcus aureus. The data set is described as follows: Induction of biofilm formation in Staphylococcus aureus 113 after 18 hrs by crystal violet staining. In kind it is functional, organism-based.
For data set [24], the system named is Bacillus subtilis. Put plainly: Induction of biofilm formation in Bacillus subtilis after 18 hrs by crystal violet staining. In kind it is functional, organism-based.
Data set [25] has as its system Pseudomonas aeruginosa. Put plainly: Inhibition of biofilm formation of Pseudomonas aeruginosa PAO1 at 0.322 uM to 2.58 mM. In kind it is functional, organism-based.
In data set [26] the test system is Pseudomonas aeruginosa. Put plainly: Antimicrobial activity against Pseudomonas aeruginosa PAO1 by macrodilution method. The format is functional.
The subject of data set [27] is Staphylococcus epidermidis. Put plainly: Effect on agr quorum sensing system in Staphylococcus epidermidis 1457 assessed as RNA3 expression level at 2.5 to 20 uM. In kind it is functional, organism-based.
For data set [28], the system named is Staphylococcus aureus. The data set is described as follows: Increase in biofilm formation in agr gene-deficient Staphylococcus aureus Newman by crystal violet staining. The format is functional, organism-based.
The subject of data set [29] is Staphylococcus aureus. Put plainly: Increase in biofilm formation in Staphylococcus aureus Newman by crystal violet staining. In kind it is functional, organism-based.
Data set [30] relates to Staphylococcus epidermidis. Put plainly: Reduction luxS mRNA level in Staphylococcus epidermidis 1457 at 20 uM. The format is functional, organism-based.
The test system of data set [31] is Staphylococcus epidermidis. The data set is described as follows: Effect on biofilm formation in luxS gene-deficient Staphylococcus epidermidis 1457 at >10 uM by crystal violet staining. The format is functional, organism-based.
The test system of data set [32] is L929. The data set is described as follows: Cytotoxicity against mouse L929 cells after 24 hrs at 28.4 +/- 8.4 uM by LDH release assay. In kind it is cell-based. The note with it: l929, 24 h.
Data set [33] relates to Staphylococcus epidermidis. Put plainly: Increase in polysaccharide intercellular adhesin in Staphylococcus epidermidis 1457 at 2.5 to 20 uM by ant-PIA staining. In kind it is functional, organism-based.
The subject of data set [34] is L929. The data set is described as follows: Cytotoxicity against mouse L929 cells after 24 hrs at 38.35 +/- 15.0 uM by LDH release assay. The settings on record: l929, 24 h. In kind it is cell-based.

≈ marks a conversion by molar mass, not a printed value. Calls of active or inactive are those of the source. The rule behind the calls is not given here.

With `CCCC(Br)C1=C(Br)/C(=C/Br)OC1=O` (configuration not stated), in [1], the outcome was Active. Moreover, in the data set on L929 [2], the Activity is recorded as 30%. Further, the result in data set [3] was inactive.
On to `CCCC(OCCOCCOCCN=[N+]=[N-])C1=C(Br)/C(=C/Br)OC1=O` (configuration not stated), for which the result in data set [1] was Active. Also, the Activity in the data set on L929 [4] is given as 30%. Moreover, the outcome in data set [3] was inactive.
`CCCCC1=C(Br)/C(=C/Br)OC1=O`: the MBC (in data set [5]; in data set [6]; in data set [7]; in data set [8]; with Staphylococcus aureus [9]; against Staphylococcus aureus [10]) was over 130 µM in each case. The results for the MBC against Bacillus subtilis [11] and against Pseudomonas aeruginosa [26] were 100 µM (≈ 31 µg/mL) and over 130 µM, respectively. The MIC (commonly the lowest concentration found to suppress growth) in data set [5] was determined as 50 µM (≈ 15.5 µg/mL); in [6], 65 µM (≈ 20.1 µg/mL); in data set [7], 50 µM (≈ 15.5 µg/mL); in [8], 30 µM (≈ 9.3 µg/mL); against Staphylococcus aureus [9], 15 µM (≈ 4.65 µg/mL); in the data set on Staphylococcus aureus [10] it was 15 µM (≈ 4.65 µg/mL). The figures for the MIC in the data set on Bacillus subtilis [11] and with Pseudomonas aeruginosa [26] were 100 µM (≈ 31 µg/mL) and over 130 µM, respectively. The result (in data set [12]; in data set [13]; in data set [14]; in data set [15]; in the data set on Staphylococcus aureus [16]; in the data set on Staphylococcus aureus [17]) was Active. Besides, the outcome (in data set [1]; in [18]; in [19]; with Staphylococcus aureus [22]; with Staphylococcus aureus [28]; in the data set on Staphylococcus aureus [29]) was Active. For the same compound, the outcome in data set [30] and in [33] was Active. Also, the outcome (in [20]; in data set [21]; with Staphylococcus aureus [23]; in the data set on Bacillus subtilis [24]; in data set [27]; in data set [31]) was inactive. For the same compound, the inhibition entry in the data set with Pseudomonas aeruginosa [25] is “Active”. In the data set on L929 [32], this compound registered an Activity of 30%.
On to `C#CCOC(CCC)C1=C(Br)/C(=C/Br)OC1=O` (configuration not stated), for which the result in [1] was Active. The same compound yielded an Activity in the data set with L929 [34] of 30%. Also, in [3], the result was inactive.
